Literature values as cited in US20060127486A1, “Ceramic structures for prevention of drug diversion” (priority 2004, published 2006).
Read-outs that look alike come from different tables or passages of the source.

Parameters: reference not given here
[1] = equianalgesic doses of various opioids, given as an aid to exact dose determination

Structure (SMILES) | equianalgesic dose [1] [mg] | equianalgesic dose (in vivo) [mg]
COc1ccc2c3c1O[C@H]1[C@@H](O)C=C[C@H]4[C@@H](C2)N(C)CC[C@@]341 [codeine] | 90.0 | –
COc1ccc2c3c1O[C@H]1C(=O)CC[C@H]4[C@@H](C2)N(C)CC[C@]314 [hydrocodone] | 15.0 | –
CN1CC[C@]23CCCC[C@H]2[C@H]1Cc1ccc(O)cc13 [levorphanol] | 1.8 | –
CCOC(=O)C1(c2ccccc2)CCN(C)CC1 [meperidine] | – | 135.0
CCC(=O)C(CC(C)N(C)C)(c1ccccc1)c1ccccc1 (stereo not shown) [methadone] | 9.0 | –
CN1CC[C@]23c4c5ccc(O)c4O[C@H]2[C@@H](O)C=C[C@H]3[C@H]1C5 [morphine] | – | 27.0
COc1ccc2c3c1O[C@H]1C(=O)CC[C@@]4(O)[C@@H](C2)N(C)CC[C@]314 [oxycodone] | 13.5 | –
